How the values were obtained:
Human PTP1B (1-321) = target: T1, Human PTP1B (1-321) (Homo sapiens, UniProt P18031); assay: In Vitro Inhibition of PTP1B (PTPase assay); assay type: biochemical; conditions: PTP1B inhibitory activity, procedures of Example 150
T1 construct: Human PTP1B (1-321) was cloned from a human cDNA library; made in house; host or cells: E. coli
T1 sequence (P18031 1-321): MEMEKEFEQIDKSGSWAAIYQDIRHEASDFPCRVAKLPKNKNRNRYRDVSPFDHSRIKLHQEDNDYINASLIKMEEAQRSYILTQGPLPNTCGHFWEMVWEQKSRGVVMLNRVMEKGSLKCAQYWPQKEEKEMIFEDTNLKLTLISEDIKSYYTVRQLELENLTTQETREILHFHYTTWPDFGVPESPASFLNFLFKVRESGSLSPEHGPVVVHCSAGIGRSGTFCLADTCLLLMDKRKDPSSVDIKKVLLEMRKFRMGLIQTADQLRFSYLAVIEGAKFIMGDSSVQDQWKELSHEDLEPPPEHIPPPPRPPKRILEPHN
Method: Human PTP1B (1-321) was cloned from a human cDNA library using conventional molecular biology techniques. The cDNA sequence was identical to the published human PTP1B sequence (Accession number M33689). The protein was expressed and purified from E. coli as described by Barford D. et. al J. Mol Biol (1994) 239, 726-730.
The measurement of PTPase activity was carried out using one of two methods:
The first method for the measurement of PTP1B inhibitory activity a tyrosine phosphorylated peptide based on the amino acid sequence of insulin receptor tyrosine autophosphorylation site 1146 (TRDI(pY)E) was used as substrate. The reaction conditions were as follows:
PTP1B (0.5-2 nM) was incubated with compound for 15 min in buffer containing 37.5 mM Bis-Tris buffer pH 6.2, 140 mMNaCl, 0.05% BSA and 2 mM DTT. The reaction was started by the addition of 50 μM substrate. After 20 min at room temperature (22-25° C.), the reaction was stopped with KOH and the amount of free phosphate measured using Malachite Green as previously described (Harder et al. 1994 Biochem J. 298; 395).
The second method was used for the measurement of general PTPase inhibitory activity across a panel of PTPases the substrate (6,8-difluoro-4-methylumbelliferyl phosphate (DiFMUP; from Molecular Probes) was used at the Km for each enzyme. The buffer conditions were identical as in the Malachite Green assay. The reaction was stopped with KOH. In this case the dephosphoryated product becomes fluorescent and the fluorescense read (Excitiation: […]/Emmission: 460 nM).

## CNc1nc(N)nc2cc(-c3ccccc3C)ccc12 [Example 6, N4-Methyl-7-o-tolyl-quinazoline-2,4-diamine]
Human PTP1B (1-321)
  IC50: 3150 nM

## CNc1nc(N)nc2cc(-c3c(C)cccc3C)ccc12 [Example 8, 7-(2,6-Dimethyl-phenyl)-N4-methyl-quinazoline-2,4-diamine]
Human PTP1B (1-321)
  IC50: 790 nM

## Cc1cccc(C)c1-c1ccc2c(N(C)C)nc(N)nc2c1 [Example 9, 7-(2,6-Dimethyl-phenyl)-N4,N4-dimethyl-quinazoline-2,4-diamine]
Human PTP1B (1-321)
  IC50: 14000 nM

## CCNc1nc(N)nc2cc(-c3c(C)cccc3C)ccc12 [Example 14, 7-(2,6-Dimethyl-phenyl)-N4-ethyl-quinazoline-2,4-diamine]
Human PTP1B (1-321)
  IC50: 2480 nM

## CNc1nc(N)nc2cc(-c3c(OC)cccc3OC)ccc12 [Example 21, 7-(2,6-Dimethoxy-phenyl)-N4-methyl-quinazoline-2,4-diamine]
Human PTP1B (1-321)
  IC50: 3500 nM

## CNc1nc(N)nc2cc(-c3c(Cl)cccc3Cl)ccc12 [Example 24, 7-(2,6-Dichloro-phenyl)-N4-methyl-quinazoline-2,4-diamine]
Human PTP1B (1-321)
  IC50: 1110 nM

## Cc1cccc(C)c1-c1ccc2c(NCCO)nc(N)nc2c1 [Example 36, 2-[2-Amino-7-(2,6-dimethyl-phenyl)-quinazolin-4-ylamino]-ethanol]
Human PTP1B (1-321)
  IC50: 3170 nM

## Nc1nc(NCCO)c2ccc(-c3ccccc3F)cc2n1 [Example 41, 2-[2-Amino-7-(2-fluoro-phenyl)-quinazolin-4-ylamino]-ethanol]
Human PTP1B (1-321)
  IC50: 19000 nM

## Cc1ccccc1-c1ccc2c(NCCO)nc(N)nc2c1 [Example 43, 2-(2-Amino-7-o-tolyl-quinazolin-4-ylamino)-ethanol]
Human PTP1B (1-321)
  IC50: 6020 nM

## Nc1nc(NCCO)c2ccc(-c3ccccc3C(F)(F)F)cc2n1 [Example 57, 2-[2-Amino-7-(2-trifluoromethyl-phenyl)-quinazolin-4-ylamino]-ethanol]
Human PTP1B (1-321)
  IC50: 3340 nM

## CNc1nc(N)nc2cc(-c3ccccc3SC)ccc12 [Example 58, N4-Methyl-7-(2-methylsulfanyl-phenyl)-quinazoline-2,4-diamine]
Human PTP1B (1-321)
  IC50: 1010 nM

## CNc1nc(N)nc2cc(-c3ccc(F)cc3C)ccc12 [Example 69, 7-(4-Fluoro-2-methyl-phenyl)-N4-methyl-quinazoline-2,4-diamine]
Human PTP1B (1-321)
  IC50: 4040 nM

## CNc1nc(N)nc2cc(-c3ccccc3[S+](C)[O-])ccc12 (stereo not drawn) [Example 71, 7-(2-Methanesulfinyl-phenyl)-N4-methyl-quinazoline-2,4-diamine]
Human PTP1B (1-321)
  IC50: 2780 nM

## CNc1nc(N)nc2cc(-c3ccccc3S(C)(=O)=O)ccc12 [Example 72, 7-(2-Methanesulfonyl-phenyl)-N4-methyl-quinazoline-2,4-diamine]
Human PTP1B (1-321)
  IC50: 1440 nM

## CSc1ccccc1-c1ccc2c(NCCO)nc(N)nc2c1 [Example 75, 2-[2-Amino-7-(2-methylsulfanyl-phenyl)-quinazolin-4-ylamino]-ethanol]
Human PTP1B (1-321)
  IC50: 4180 nM

## CCS(=O)(=O)c1ccccc1-c1ccc2c(NC)nc(N)nc2c1 [Example 82, 7-(2-Ethanesulfonyl-phenyl)-N4-methyl-quinazoline-2,4-diamine]
Human PTP1B (1-321)
  IC50: 1390 nM

## CNc1nc(N)nc2cc(-c3c(C)cccc3Cl)ccc12 [Example 89, 7-(2-Chloro-6-methyl-phenyl)-N4-methyl-quinazoline-2,4-diamine]
Human PTP1B (1-321)
  IC50: 1460 nM

## CNc1nc(N)nc2cc(-c3ccccc3S(=O)(=O)N(C)C)ccc12 [Example 120, 2-(2-aAmino-4-methylamino-quinazolin-7-yl)-N,N-dimethyl-benzenesulfonamide]
Human PTP1B (1-321)
  IC50: 1600 nM

## CCNS(=O)(=O)c1ccccc1-c1ccc2c(NC)nc(N)nc2c1 [Example 125]
Human PTP1B (1-321)
  IC50: 1890 nM

## CNc1nc(N)nc2cc(-c3ccccc3S(=O)(=O)NC)ccc12 [Example 126, N-methyl-2-(2-amino-4-methylamino-quinazolin-7-yl)-benzenesulfonamide]
other
  melting point: 316 to 317 °C
Human PTP1B (1-321)
  IC50: 1940 nM

— US20090105477A1, “Quinazoline Protein Tyrosine Phosphatase Inhibitors” (priority 2004, published 2009)
